# Test results published in patent US20250235418A1, “Butyrate Analogues and Methods of Use for HIF Stabilization and Treatment of Bowel Disease” (THE REGENTS OF THE UNIVERSITY OF COLORADO, A BODY CORPORATE, priority 2022, published 2025).
# Key:
# PHD2181-402 [1] = target: T1, PHD2181-402 (Homo sapiens, UniProt Q9GZT9); experiment: bioluminescent succinate detection assay of recombinant PHD2181-402 activity/inhibition; type: biochemical
# T1 construct: made in house
# Description: To pinpoint if butyrate inhibits PHDs directly, we expressed recombinant PHD derived from the human PHD2 sequence. There are three human PHDs: PHD1, PHD2, and PHD3, with PHD2 being the most abundant and expressed in the majority of tissues, the most important regulator of HIF, particularly HIF-1α, and the only PHD that is embryonically lethal when deleted. PHD1 is exclusively localized to the nucleus, whereas PHD2 is mainly cytoplasmic, and PHD3 is both. […] Sequence comparisons and modeling studies indicate that the PHD2 active site is highly conserved among the PHDs.
# IC50s depend on exact experimental conditions, making direct comparisons and global applications difficult.
# c2bbe cells = experiment: epithelial barrier formation by transepithelial electrical resistance (TEER); type: cell-based; conditions: 5 mM
# Protocol: Barrier development in Caco-2 cells treated with Veh, BA or […] (5 mM); n=6. Data analyzed by Two-way ANOVA with Dunnett for post hoc correction and presented as mean±S.E.M, *p<0.05 **p<0.01, ***p<0.001, #BA, *MBA compared to veh in two independent experiments.
# TEER of C2bbe cells exposed to 5 mM butyrate derivatives.
# Therefore, we decided to study the effect of various butyrate derivatives in barrier function; in fact, sodium butyrate is an established pro-barrier factor. We studied epithelial barrier integrity through measurement of transepithelial electrical resistance (TEER), a typical assay for the quantitation of epithelial barrier strength. IEC c2bbe were exposed to butyrate derivatives (all at 5 mM) and TEERS were measured daily.
# [2] = system: HIF-1α in murine enteroids; experiment: HIF stabilization in differentiated murine enteroids; type: cell-based; conditions: 10 mM butyrate with or without 1 mM MCPA, 4 h
# HIF regulated targets = experiment: intraperitoneal injection in C57BL/6 mice, HIF regulated targets (EPO, GLUT1); type: in vivo; conditions: IP, BA 73 mg/kg, MBA 80 mg/kg, 24h
# Protocol: Erythropoietin (EPO) is regulated by HIF stabilization. (A) EPO protein in blood serum was assessed by mesoscale assay (n=6-8). qPCR mRNA expression of HIF target mGLUT1 in kidney (B) and colon tissue (C) (n=3-8). Data analyzed by One-way ANOVA with Tukey for post hoc correction and presented as mean±S.E.M of two independent experiments, *p<0.05, **p<0.01, ***p<0.001, ****p<0.0001 […]
# At 24 h, mice were sacrificed followed by exsanguination, extraction of right kidney and distal colon for analysis of HIF stabilization and HIF target gene expression. SHBA induces HIF regulated targets in vivo. Erythropoietin (EPO) is regulated by HIF stabilization. (A) EPO protein in blood serum was assessed by mesoscale assay (n=6-8). (B) qPCR mRNA expression of HIF target mGLUT1 in colon tissue (n=3-4). Data are presented as mean±S.E.M of two independent experiments, *p<0.05, **p<0.01.
# A typical physiologic response to hypoxia is the increase in red blood cell production. Naturally, HIF is in charge of this response by regulating cell-type specific gene expression that leads to increased levels of the hormone erythropoietin (EPO).[10] […] We lastly explored the in-vivo effects of MBA in mediating induction of genes tightly regulated by HIF. […] After 24h of treatment, they were sacrificed and quickly exsanguinated to measure EPO levels in serum. […] Furthermore, we studied the induction of GLUT1, another classic HIF target responsible for the transport of various monosaccharides. Kidney and colon tissue were analyzed by real-time PCR to compare BA and MBA head-to-head. […] These findings support the ability of MBA to stabilize HIF in-vivo leading to the induction of classic target genes and transcription of a tightly regulated protein EPO.
# [3] = system: HIF target genes in T84 cells; experiment: real-time PCR of HIF target genes BNIP3 and CAIX in T84 cells; type: cell-based; conditions: 16h
# Protocol: (A) Exposure of T84 cells to Veh, BA or MBA (5 mM, 16 h) induced HIF target gene expression of CAIX and BNIP3. […] (C) Non-targeting control and T84 HIF1b depleted cells were analyzed for HIF1b expression by western blotting, shown with a representative blot. Quantification of HIF1b decrease was performed using ACTB-normalized densitometry. qPCR data was analyzed by One-way ANOVA with Bonferroni for post hoc correction and presented as mean±S.E.M, **p<0.01, ***p<0.001, ****p<0.0001 of three independent experiments.
# Following these findings, we then explored if the MBA-induced stabilization of HIF was reflected in the transcriptional regulation of target genes. We utilized real-time PCR to study the influence of MBA mediated HIF stabilization in the induction of established HIF targets, BNIP3 (cell survival) and CAIX (pH regulation).
# Furthermore, to confirm MBA-induced HIF transcriptional activity, we quantified the induction of BNIP3 and CAIX by BA or MBA (5 mM, 16h) in lentiviral shRNA-mediated knockdown of HIF1β relative to non-targeting shRNA controls. […] These findings confirm that through MBA exposure, HIF is stabilized and it is transcriptionally active.
# [4] = system: PHD (2-OG accumulation) in T84 IECs; experiment: 2-OG levels in T84 cells as biomarker of PHD inhibition; type: cell-based; conditions: 3 h
# Protocol: (B) 2-OG concentrations in T84 cells treated with 10 mM butyrate with or without 1 mM MCPA or 30 μM IOX2 for 3 h
# The relationship between butyrate and HIF, were examined whether butyrate influences PHD activity by monitoring 2-OG levels. […] In this, we considered such 2-OG accumulation as a metabolic biomarker of PHD inhibition (FIG. 3A).
# PHD2181-402 [5] = target: T1, PHD2181-402; experiment: WaterLOGSY 1D NMR binding to PHD2181-402; conditions: for binding to PHD2181-402 by WaterLOGSY: 10 mM SCFA, 25 μM PHD2181-402
# Description: Protons attached to C4 were selectively inverted and acted as source of magnetization transfer. […] (G) Protons attached to C2 were selectively inverted.
# Measurements were repeated 3 times.
# This method enables sensitive and robust detection of binding (dissociation constants as weak as μM to low mM) based on the magnetization transfer between water molecules, proteins, and ligands of interest in close proximity via dipolar proton-proton cross-relaxation (nuclear Overhauser effect, NOE). […] Binding and non-binding ligands can be distinguished in a WaterLOGSY spectrum via their opposite signs in relation to water for their corresponding peaks.
# This technique allows for mapping of the ligand pharmacophore by monitoring the response of individual protons to an increase of ROEs contribution to the overall cross relaxation rate.
# T1 sequence (Q9GZT9 181-402): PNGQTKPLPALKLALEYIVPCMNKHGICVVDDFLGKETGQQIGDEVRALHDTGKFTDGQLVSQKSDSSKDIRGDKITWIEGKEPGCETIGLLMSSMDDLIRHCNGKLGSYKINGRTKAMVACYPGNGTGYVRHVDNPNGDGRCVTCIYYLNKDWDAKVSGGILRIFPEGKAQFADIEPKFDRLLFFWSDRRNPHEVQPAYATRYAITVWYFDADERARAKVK
structure (smiles),measurement,setting,value
"CCCC(=O)O [Butyrate, Butyric acid]",mode of PHD inhibition,PHD2181-402 [1],noncompetitive
same,IC50,"PHD2181-402 [1]; 1 μM PHD2181-402, 10 μM 2-OG, 10-minute reaction, n=5-12, error: SEM, read-out: true half maximal inhibitory concentration (IC50) for PHD2181-402",5.3 mM
same,Ki,"PHD2181-402 [1]; IC50 to Ki conversion equation of Cer et al., read-out: noncompetitive Ki for PHD2181-402",5.3 mM
same,barrier integrity over the course of the experiment,c2bbe cells,lose the integrity of their barrier
same,HIF-1α protein expression,[2],increased HIF-1α protein expression
same,HIF-1α target gene expression,[2],induced expression of HIF-1α target genes
same,GLUT1 mRNA in colon tissue,HIF regulated targets,significantly increased in colon tissue
same,GLUT1 mRNA in kidney,HIF regulated targets,induction of GLUT1 in kidney
same,induction of HIF target genes BNIP3 and CAIX,"[3]; T84, 5 mM",significant induction
same,induction of BNIP3 and CAIX in cells lacking HIF1β,"[3]; T84 HIF1β shRNA knockdown, 5 mM",complete loss of induction
same,2-OG levels in the presence of MCPA,[4]; 10 mM butyrate with 1 mM MCPA,significantly increased
same,2-OG levels compared to control,"[4]; 10 mM butyrate, 30 μM IOX2",significantly increased
same,binding to PHD2181-402 by WaterLOGSY,PHD2181-402 [5]; listed as Butyric acid,indicating binding
same,binding to PHD2181-402 by WaterLOGSY,PHD2181-402 [5]; listed as butyrate,indicative of binding
same,binding to the 2-OG and PHD2181-402 complex by WaterLOGSY,"PHD2181-402 [5]; 10 mM butyrate, 25 μM PHD2181-402, with 150 μM 2-OG",could not bind
